Results on 5 compounds are retold here after patent US20260315434A1, “USE OF GUAIACOL SESQUITERPENE LACTONE DERIVATIVES” (NANJING UNIVERSITY OF CHINESE MEDICINE, priority 2023, published 2026).

One data set concerns MDSCs. Kind of data set: Proportion of MDSCs in tumor and spleen of H22 xenograft mice (flow cytometry). Type of data set: in vivo, BALB/c mice. To be noted: for Spleen MDSCs (%) / Tumor-associated MDSCs (%): 40 μmol/kg/day, oral, 2 weeks, flow cytometry. The method, then:
Once all tumors were dissected, nail-sized tumor pieces were transferred to 1.5 mL Eppendorf tubes and minced with scissors. Transfer the minced tumor tissue suspension to a 15 mL centrifuge tube containing 3-5 mL of digestive enzymes (Collagenase IV 1 mg/mL, Hyaluronidase 1 mg/mL, DNase 120 U/mL). Incubate at 200 rpm and 37° C. for 1 hour. After digestion, pass the mixture through a 200-mesh sieve to obtain the tumor cell suspension. Centrifuge the resulting tumor suspension at 1600 rpm for 5 min, aspirate the supernatant, resuspend cells in 1 mL of 1×PBS per tube. Transfer the cell suspension to a 1.5 mL Eppendorf tube, centrifuge at 1600 rpm for 5 min, remove the supernatant, resuspend cells in 100 μL of 1×PBS per tube, add 1 μL of dead/live dye to each tube, mix thoroughly, and incubate at room temperature in the dark for 15 min. […] Position the spleen on a 200-mesh cell strainer. Gently press the spleen using a 10 mL syringe needle. […] Transfer the washed splenocyte suspension into a 15 mL centrifuge tube. Centrifuge at 1600 rpm for 5 min to collect cells. Wash once with 1×PBS. Add 3 mL red blood cell lysis buffer (diluted with ddH2O) to each tube and incubate for 5 min. After lysis, add 10 mL 1×PBS to each tube to terminate lysis. Centrifuge at 1600 rpm for 5 min. Add 1 mL 1×PBS to each 15 mL centrifuge tube, transfer to 1.5 mL EP tubes, and centrifuge at 1600 rpm for 5 min. Add 1 mL 1×PBS to each tube containing stained tumor cells and lysed spleen cells for one wash, centrifuge at 1600 rpm for 5 min, and remove the supernatant. Resuspend tumor cells and spleen cells separately in 100 μL 1×PBS. Add 1 μL FcX™ antibody to each tube and incubate at room temperature in the dark for 10 min. After incubation, sequentially add 1 μL each of CD45, CD11b, Gr1 antibodies. Incubate at 4° C. in the dark for 30 min. After incubation, wash once with 1×PBS, discard the supernatant, resuspend cells in 300 μL 1×PBS, filter the membrane into a flow cytometry tube, and proceed to instrument analysis.
(A flow cytometer gives signals particle by particle.)

Another data set deals with Hepa1-6 cells. In words: Antitumor effect in Hepa1-6 mouse hepatocellular carcinoma subcutaneous xenograft model. It counts as in vivo, C57BL/6 mice.
A further data set deals with 4T1 cells. Kind of data set: Antitumor effect in 4T1 mouse mammary carcinoma xenograft model. To be noted: for Tumor inhibition rate (%) / Tumor weight: 40 μmol/kg/day, 4T1. Type of data set: in vivo, BALB/c mice. As to the method:
4T1 cells were cultured and expanded in vitro. […] A 100 μL aliquot of this suspension was injected subcutaneously into the left forelimb axilla of female BALB/c mice. […] Daily oral administration was performed for 3 weeks. During the treatment period, mouse body weight and tumor diameter were measured daily. At the end of the experiment, mice were euthanized by cervical dislocation, and tumors were removed for weighing. Tumor volume (TV) was calculated using the formula: TV=½×a×b^2, where a represents the longest diameter of the tumor and b represents the shortest diameter.

The next data set concerns T cells / MDSCs. Kind of data set: Promotion of T cell proliferation in a co-culture model of MDSCs and T cells. To be noted: for activation at 1 µM: Mus musculus, T-cell, 12 h. Type of data set: cell-based, mouse. The essentials:
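Bone-marrow MDSCs, after compound treatment, were co-cultured 48 h at 1:1 with CFDA-SE-labelled (10 μM solution), activated splenic T cells. Proliferation of CD3+ T cells was read by flow cytometry.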

For the next data set, the system named is H22 cells. In words: Antitumor effect in H22 mouse hepatocellular carcinoma subcutaneous xenograft model. To be noted: for Tumor Suppression Rate (%) / Tumor weight: 40 μmol/kg/day, H22 xenograft. Type of data set: in vivo, BALB/c mice.
Data set [1] relates to fibrosis-related factors (α-Sma, Col1a1, Tgfb1) in kidney tissue. Kind of data set: Folic acid-induced kidney injury, renal fibrosis-related factor mRNA. Type of data set: in vivo, C57BL/6 mice. The following applies: folic acid model. The method, then:
Except for the normal group, all other mice were administered folic acid (250 mg/kg) dissolved in 0.9% NaHCO3 solution via intraperitoneal injection to establish an acute kidney injury model.
The blood was allowed to stand at room temperature for 2 hours, then centrifuged at 3000 rpm for 20 minutes. Serum was aspirated, aliquoted, and stored at −70° C. for future use. Following blood collection, euthanize mice by cervical dislocation. Perform laparotomy to remove kidneys, dissect out perirenal fat and capsules. […] Paraffin-embedded specimens undergo HE staining; remaining tissue is stored at −70° C. for future use.

Data set [2] can be described thus: Conversion (release) of prodrug salts to parent compound in mouse plasma. Type of data set: in vitro ADME. To be noted: 37 °C; for metabolised at 1 h / metabolised at 2 h / metabolised at 4 h / metabolised at 8 h / metabolised at 12 h: mouse, plasma. The essentials: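 Salts (0.6 mg in 250 μL water) were mixed 1:1 with heparinized mouse plasma or HEPES pH 7.4 and incubated at 37 °C. Samples were methanol-quenched and taken at 1–12 h. Parent compound was quantified by C18 HPLC-UV at 210 nm using peak areas.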

The mark [3] stands for this setting: compared with solvent control, result in words.
Setting [4] is: 40 μmol/kg/d oral, 2 weeks, solvent 0.92 ± 1.41.

Like-named read-outs stand apart in the source and are kept apart here.

Consider `C=C1C(=O)O[C@@H]2[C@H]3C(C)=CC[C@@]34O[C@@]4(C)CC[C@@H]12` [Arg, Arglabin, reference compound], for which the “proportion of MDSCs in tumor tissues and spleens” value (from here on “proportion of MDSCs”) with MDSCs (mouse, in vivo) is “significantly reduced”. In addition, the “Tumor weight” value with Hepa1-6 cells (mouse, in vivo, po) came out at 0.04 ± 0.03 g. In addition, the “antitumor effect, 4T1” value with 4T1 cells (mouse, in vivo, po) is given as “no significant antitumor effects”. Further, in the data set with T cells / MDSCs (read-out: T-cell proliferation rate (%)), the activation at 1 µM is more than 40%. Besides, in the data set with H22 cells (mouse, in vivo, po), the “tumor-inhibiting effect, H22” value is recorded as “tumor-inhibiting effects”.

As to `CN(C)C[C@@H]1C(=O)O[C@H]2[C@H]1CC[C@@]1(C)C[C@]13CC[C@@](C)(O)[C@H]23` [Compound 20], in the data set on MDSCs, the “Spleen MDSCs (%)” value is reported as 23.10 ± 5.35 % and the “Tumor-associated MDSCs (%)” value amounted to 7.86 ± 6.19 %. Moreover, in the data set on MDSCs (setting [3]), the “proportion of MDSCs” value is given as “significantly reduced”. Moreover, in data set [1] (1 mg/kg oral, 1 mg/kg), the “Col1a1 mRNA expression, kidney” value was 1.18 ± 0.15; the “Tgfb1 mRNA expression, kidney” value was determined as 0.98 ± 0.27; the “α-Sma mRNA expression, kidney” value came to 1.11 ± 0.17. For the same compound, in the data set with 4T1 cells (oral, 3 weeks), the “Tumor inhibition rate (%)” value is reported as −15.24% and the “Tumor weight” value was found to be 2.09 ± 0.60 g. Moreover, in the data set on 4T1 cells (oral, 3 weeks, result in words), the “antitumor effect, 4T1” value is “no significant antitumor effects”. Further, in data set [2] (1 h, 60 min), the “Release rate (conversion to Compound 1)” value was found to be 7.3%. Moreover, the “Release rate (conversion to Compound 1)” value in data set [2] (2 h, 120 min) turned out to be 12.9%. Besides, the “Release rate (conversion to Compound 1)” value in data set [2] (4 h, 240 min) was determined as 28.6%. Moreover, in data set [2] (8 h, 480 min), the “Release rate (conversion to Compound 1)” value is 46.8%. The “Release rate (conversion to Compound 1)” value in data set [2] (12 h, 720 min) is reported as 62.9%. Also, in the data set on H22 cells (oral, 2 weeks), the “Tumor Suppression Rate (%)” value was 70.86% and the “Tumor weight” value is reported as 4.88 ± 0.87 g. Further, the “tumor-inhibiting effect, H22” value in the data set with H22 cells (oral, 2 weeks, result in words) is listed as “tumor-inhibiting effects”.

`CN(C)C[C@@H]1C(=O)O[C@H]2[C@H]1CC[C@@]1(C)C[C@]13CC[C@@](C)(O)[C@H]23` [Compound 21]: the “Col1a1 mRNA expression, kidney” value in data set [1] (0.1 mg/kg oral) is given as 1.58 ± 0.35; in data set [1] (1 mg/kg oral, 1 mg/kg), 1.20 ± 0.19. The “Tgfb1 mRNA expression, kidney” value is 1.64 ± 0.16 in data set [1] (0.1 mg/kg oral) and 1.09 ± 0.15 in data set [1] (1 mg/kg oral, 1 mg/kg). The “α-Sma mRNA expression, kidney” value in data set [1] (0.1 mg/kg oral) is 1.80 ± 0.42; in data set [1] (1 mg/kg oral, 1 mg/kg), 0.90 ± 0.21. Also, the “T-cell proliferation rate (%)” value with T cells / MDSCs (1 μM, MDSCs treated 12 hours, co-culture of MDSCs and T cells, compared to the control group) is reported as “+ (T-cell proliferation rate within the 0-20% range compared to the control group)”. Besides, the “Release rate (conversion to Compound 1)” value in data set [2] (1 h, 60 min) was 5.4%; in data set [2] (2 h, 120 min), 10.7%; in data set [2] (4 h, 240 min), 17.9%; in data set [2] (8 h, 480 min), 39.3%; in data set [2] (12 h, 720 min), 55.4%.

`CC1=C2CC[C@@](C)(OC(=O)N3CCCCC3)[C@@H]2[C@H]2OC(=O)[C@@H](CN(C)C)[C@@H]2CC1` [Compound 102]: in the data set on MDSCs, the “Spleen MDSCs (%)” value is 30.37 ± 9.84 % and the “Tumor-associated MDSCs (%)” value is reported as 32.11 ± 6.33 %. Moreover, in the data set on MDSCs (setting [3]), the “proportion of MDSCs” value is listed as “significantly reduced”. Besides, the “Tumor Inhibition Rate” value in the data set with Hepa1-6 cells (40 μmol/kg/d oral, 2 weeks) came out at 96.67%. Also, the “Tumor weight” value in the data set on Hepa1-6 cells (setting [4]) is listed as 0.03 ± 0.04 g. Also, in the data set on 4T1 cells (oral, 3 weeks), the “Tumor inhibition rate (%)” value is given as −20.37% and the “Tumor weight” value is given as 2.18 ± 1.34 g. In addition, in the data set on 4T1 cells (oral, 3 weeks, result in words), the “antitumor effect, 4T1” value is listed as “no significant antitumor effects”. In data set [2] (1 h, read-out: Release rate (conversion to Compound 83)), the metabolised at 1 h turned out to be 6.6%. The metabolised at 2 h in data set [2] (2 h, read-out: Release rate (conversion to Compound 83)) is 14%. In addition, the metabolised at 4 h in data set [2] (4 h, read-out: Release rate (conversion to Compound 83)) came to 26%. For the same compound, the metabolised at 8 h in data set [2] (8 h, read-out: Release rate (conversion to Compound 83)) came out at 42.4%. In addition, the metabolised at 12 h in data set [2] (12 h, read-out: Release rate (conversion to Compound 83)) turned out to be 47.8%. In the data set with H22 cells (oral, 2 weeks), the “Tumor Suppression Rate (%)” value came out at 27.99% and the “Tumor weight” value is 6.13 ± 1.48 g. The “tumor-inhibiting effect, H22” value in the data set on H22 cells (oral, 2 weeks, result in words) is “tumor-inhibiting effects”.

With `CC1=C2CC[C@@](C)(OC(=O)N3CCCC3)[C@@H]2[C@H]2OC(=O)[C@@H](CN3CCCC3)[C@@H]2CC1` [Compound 103], in the data set with MDSCs, the “Spleen MDSCs (%)” value stood at 24.33 ± 5.02 %. Besides, in the data set with MDSCs, the “Tumor-associated MDSCs (%)” value amounted to 10.62 ± 6.50 %. The “proportion of MDSCs” value with MDSCs (setting [3]) is reported as “significantly reduced”. Besides, in the data set with Hepa1-6 cells (40 μmol/kg/d oral, 2 weeks), the “Tumor Inhibition Rate” value was determined as 96.22%. For the same compound, the “Tumor weight” value stood at 0.03 ± 0.06 g in the data set on Hepa1-6 cells (setting [4]) and 5.02 ± 0.48 g in the data set with H22 cells (oral, 2 weeks). The results for the “Col1a1 mRNA expression, kidney” value in data set [1] (0.1 mg/kg oral), in data set [1] (1 mg/kg oral) and in data set [1] (10 mg/kg oral) were 2.45 ± 0.63, 2.25 ± 0.58 and 1.93 ± 0.41, respectively. Besides, the “α-Sma mRNA expression, kidney” value in data set [1] (0.1 mg/kg oral) is 3.50 ± 1.91; in data set [1] (1 mg/kg oral), 3.03 ± 0.99; in data set [1] (10 mg/kg oral), 1.55 ± 0.61. Moreover, in the data set with 4T1 cells (oral, 3 weeks, result in words), the “antitumor effect, 4T1” value was “no significant antitumor effects”. In the data set on T cells / MDSCs (read-out: T-cell proliferation rate (%), 1 μM, MDSCs treated 12 hours, co-culture of MDSCs and T cells, compared to the control group), the activation at 1 µM fell in the range of 20 to 40%. Also, the metabolised at 1 h in data set [2] (1 h, read-out: Release rate (conversion to Compound 82)) was 7.2%. Also, in data set [2] (2 h, read-out: Release rate (conversion to Compound 82)), the metabolised at 2 h was 13.2%. In data set [2] (4 h, read-out: Release rate (conversion to Compound 82)), the metabolised at 4 h was determined as 26.8%. In addition, in data set [2] (8 h, read-out: Release rate (conversion to Compound 82)), the metabolised at 8 h is 44.5%. The metabolised at 12 h in data set [2] (12 h, read-out: Release rate (conversion to Compound 82)) is 53.4%. In addition, the “Tumor Suppression Rate (%)” value in the data set on H22 cells (oral, 2 weeks) amounted to 60.34%. Besides, the “tumor-inhibiting effect, H22” value with H22 cells (oral, 2 weeks, result in words) was “tumor-inhibiting effects”.
